These are literature values, as cited in patent US8778397B2, “Stabilized tolterodine tartrate formulations” (Mylan Inc., priority 2007, dated 2014).

Consider `Cc1ccc(O)c([C@H](CCN(C(C)C)C(C)C)c2ccccc2)c1` [Tolterodine], for which the solubility in water is reported as 12 g/1000 mL.
